Measurements reported in patent US20070299084A1, “Indole Derivatives Useful for Treating Resistance to Antitumor Agents” (NIKEM RESE S.R.L., priority 2004, published 2007).

System: LoVo/Dx cells (doxorubicin-resistant human colon carcinoma, P-glycoprotein overexpression)
Experiment: Antiproliferative activity, 72 h treatment, SRB assay, LoVo/Dx
Format: cell-based
From the text: LoVo and LoVo/Dx (line obtained by prolonged exposure to doxorubicin and characterised by overerexpression of P-glycoprotein, which confers resistance to doxorubicin): maintained in HAM-F12 medium+10% FCS.

[1] = cell line not stated in the sentence (follows LoVo/DX)

## CCOc1cc(C(=O)NC2CC(C)(C)NC(C)(C)C2)ccc1-c1cc2cc(Cl)c(Cl)cc2[nH]1 [Example 2]
Homo sapiens, LoVo/DX, 72 h, read-out: Antiproliferative activity (IC50 ± S.D., μM) LoVo/Dx
  IC50: 3 ± 1.3 µM
LoVo/DX variant (MDR phenotype), compared with LoVo
  Interaction with SN38: even more evident
[1]
  Interaction with doxorubicin: Synergistic interactions
  Interaction with taxol: Synergistic interactions
